# Measured values: patent US12702702B2, “Application of Caerin 1.1/1.9 combined with anti-CD47 antibody in preparing drug for treating melanoma” (WNL BIOMED TECH PTY. LTD., priority 2022, dated 2026)
# Ends that are not written are not given here.
# Columns and labels:
# B16 cells [1] = assay: F1/F3 treatment of nude mice bearing tumor model; assay type: in vivo; settings: 30 μg intratumoral for 7 days from DAY 3
# B16 cells [2] = assay: MTT assay for B16 cell survival; assay type: cell-based; settings: B16 cells cultured overnight with F1/F3 at 0-20 μg/mL, MTT kit
# Experimental: (§1) • 1. An MTT assay was used to detect cell survival condition: 7×10^4 B16 cells per well were cultured overnight with F1/F3 at different concentrations (0, 6, 8, 10, 12, 14, 16, 18, 20 μg/mL) in 4 duplicate wells, and the cell survival condition was detected by using an MTT kit (a product number: C0009M) and an IC50 value was calculated by drawing. Latest results of two independent experiments were shown. • 2. Detection of cell apoptosis: it was divided into a test group and a control group, and the B16 cells were cultured with a complete medium (composed of 1640 basic medium+fetal bovine serum from South American+double antibody (mixed with penicillin and streptomycin at a ratio of 1:1) at a volume ratio of 90:9:1), where Caerin 1.1/Caerin 1.9 was added to the test group with a final concentration of 10 μg/mL, and P3 was added to the control group with a same final concentration of 10 μg/mL. The cells were cultured overnight in a 5% CO2 incubator at 37° C., and their apoptosis conditions were detected by an apoptosis kit (an Annexin V-EGFP apoptosis detection kit, with a product number: C1067M). II. Experimental Results: • 1. In FIG. 1, A represented the cell survival condition at different concentrations, and B represented a calculated survival rate. […] In FIG. 2, A was a cell apoptosis distribution diagram, and B was a statistical analysis result.
# B16 cells [3] = assay: Flow cytometry of tumor-infiltrating immune cells after F1/F3 injection; assay type: in vivo, C57BL/6 mice; settings: DAY 13, flow cytometry
# Experimental: (§2) • 1. Experiment objects: 12 C57BL/6 mice were divided into 3 groups with 4 mice in each group. • 2. Experiment method: • 2.1 Detection of tumor weight: A. Each C57BL/6 mouse was subcutaneously inoculated with 4×10^5 B16 cells, and time of tumor bearing was recorded as DAY 0. On DAY 3, the three groups were respectively injected with 100 μL of PBS solution containing 30 μg of F1/F3 (i.e., Caerin 1.1/Caerin 1.9), 100 μL of PBS solution containing 30 μg of P3, and 100 μL of PBS solution for the negative control group every day, administered for 7 consecutive days; B. a modeling method was the same as above, there were 8 mouse in each group, which were killed at DAY 13, and the tumor was taken and weighed. • 2.2 Detection of cell activity: The experimental process was the same as that in 2.1, tumor tissues were taken and treated into single cell suspensions on DAY 13 for flow staining and detected by using a flow cytometer, and selected flow antibodies were as follows: FITC-CD45.2, APC-cy7-CD3e, Percp-cy5.5-CD4, PE-cy7-CD8a, APC-cy7-B220, PE-NK1.1, PE-F4/80, Percp-cy5.5-CD11b, and FVS510 dye. Changes of macrophage subtypes were detected, tumor tissues were taken and treated into single cell suspensions on DAY 13 for flow staining and detected by using the flow cytometer, and selected flow antibodies were as follows: FITC-CD45.2, PE-F4/80, Percp-cy5.5-CD11b, BV421-Ly6C, and FVS510 dye. • 3. In FIG. 3, A was the survival time of Caerin 1.1/Caerin 1.9 for combined treatment of melanoma-bearing mice, and B was weighted data of tumor size of each group.
# [4] = CD47 and SIRPα expression in B16 tumor tissue by flow cytometry; assay type: in vivo, C57BL/6 mice; settings: DAY 13, flow cytometry
# Experimental: (§3) • 1. Experiment objects: 21 C57BL/6 mice were divided into 3 groups with 7 mice in each group. • 2. Experiment method: A modeling method was the same as that in Experiment example 3, the experiment was divided into a PBS group, a P3 group and an F1/F3 group, tumor tissues were taken and treated into single cell suspensions on DAY 13 for flow staining and detected by using a flow cytometer, two experiments were carried out continuously, and flow antibodies were selected as follows: FITC-CD45.2, FVS510 dye, and BV421-CD47. • 3. Experimental results: This is a summary of results of two independent experiments, and the specific experimental results were shown in FIG. 9.
# CD47 = assay: as above; assay type: in vivo, C57BL/6 mice; settings: DAY 13, flow cytometry
# Experimental: as §3
# B16 cells [5] = assay: MDSC and macrophage proportions in B16 tumor tissue by flow cytometry; assay type: in vivo, C57BL/6 mice; settings: 30 μg F1/F3 daily for 7 days, tumor DAY 13, versus PBS
# Experimental: (§4) • 1. Experiment objects: 6 C57BL/6 mice were divided into 2 groups with 3 mice in each group. • 2. Experimental process: Each C57BL/6 mouse was subcutaneously inoculated with 4×10^5 B16 cells, and time of tumor bearing was recorded as DAY 0. The two groups were injected with 100 μL of PBS solution containing 30 μg of F1/F3 (i.e., Caerin 1.1/Caerin 1.9) respectively on DAY 3; and the negative control group was injected with 100 μL of PBS solution every day for consecutive 7 days. B16 tumor tissues were taken and treated into single cell suspensions on DAY 13 for flow staining and detected by using a flow cytometer. Selected antibodies were as follows: FITC-CD45.2, Percp-cy5.5-CD11b, APC-Ly6G, BV421-Ly6c, FVS510 dye, and PE-F4/80. A modeling method was the same as above, splenic organs of mice were taken and processed into single cell suspensions on DAY 13, m-MDSC was sorted by using a flow cytometer, and four groups were set up: a PBS group, a PBS+GMCSF group, an F(F1/F3) group, and an F(F1/F3)+GMCSF group. The sorted cells were counted, each group was provided with two multiple wells, with 100,000 cells each well, 10 ng/ml of GMCSF was added to each group, and after three days of stimulating culture, the cells were detected by using the flow cytometer. Selected antibodies were as follows: FITC-CD45.2, Percp-cy5.5-CD11b, APC-Ly6G, BV421-Ly6c, FVS510 dye, and PE-F4/80. • 3. […]
# B16 cells [6] = assay: Apoptosis detection (Annexin V-EGFP kit) in B16 cells; assay type: cell-based; settings: 10 μg/mL, cultured overnight, versus P3 control
# Experimental: as §1
# m-MDSC = assay: Sorted splenic m-MDSC, in vitro GMCSF stimulation culture; assay type: cell-based, C57BL/6 mice; settings: 10 ng/ml GMCSF, three days culture, compared with the PBS group
# Experimental: as §4
# B16 cells [7] = assay: In vivo B16 tumor model, intratumoral injection: survival time and tumor weight; set-up: species or system C57BL/6 mice; settings: 30 μg injected daily for 7 days from DAY 3; alone
# Experimental: as §2, with “Changes of macrophage subtypes were detected, tumor tissues were taken and treated into single cell suspensions on DAY 13 for flow staining and detected by using the flow cytometer, and selected flow antibodies were as follows: FITC-CD45.2, PE-F4/80, Percp-cy5.5-CD11b, BV421-Ly6C, and FVS510 dye. • 3. In FIG. 3, A was the survival time of Caerin 1.1/Caerin 1.9 for combined treatment of melanoma-bearing mice, and B was weighted data of tumor size of each group.” left out
substance,measurement,setting,value
"Caerin 1.1/Caerin 1.9: Caerin 1.1 and Caerin 1.9 polypeptides used together, mass ratio 1:1 (chain 1 GLLSVLGSVAKHVLPHVLPHVVPVIAEHL-NH2; chain 2 GLFGVLGSIAKHVLPHVVPVIAEKL-NH2; not fully specified; ends and bridges not checked)",survival time of tumor-bearing nude mice,B16 cells [1],significantly prolonged
same,"IC50 (IC50 half lethal dose), cell survival",B16 cells [2],11.76 µg/mL
same,number of tissue-resident macrophages for inhibiting tumor immunity,B16 cells [3],decreased
same,expression of INFα receptors in macrophages,B16 cells [3]; tumor tissue,increased
same,number of CD8+T cells and CD4+T cells,B16 cells [3]; tumor tissue,increased
same,number of inflammatory macrophages for promoting tumor immunity,B16 cells [3]; tumor tissue,increased
same,number of macrophages,B16 cells [3]; tumor tissue,increased
same,expression of SIRPα on macrophages,[4],decreased
same,expression of CD47 on tumor cells,CD47,increased obviously
same,"proportion of MDSC, m-MDSC and PMN-MDSC",B16 cells [5],tended to decrease
same,proportion of tumor macrophages in CD45.2+ cells,B16 cells [5],rising trend
same,apoptosis of B16 cells,B16 cells [6],significant apoptosis-inducing effect
same,macrophages after GMCSF stimulus differentiation of splenic m-MDSC,m-MDSC,more macrophages
same,"tumor growth in vivo (survival time, tumor weight)",B16 cells [7],effectively inhibit tumor growth
